The target of one assay is T1, GPIIb/IIIa receptor (Homo sapiens, UniProt P05106+P08514).
T1 construct: The GPIIb/IIIa receptor was purified from human platelets; from tissue; host or cells: human platelets (purified according to D'Souza et al., J. Biol. Chem. 1990, 265:3440-3446)
Put plainly: GPIIb/IIIa Receptor-Biotinylated Fibrinogen Binding Assay. The conditions noted are these: inhibition of fibrinogen binding to purified GPIIb/IIIa. From the text: (§1) Compounds may be tested for their ability to block binding of vitronectin to the αv /β3 receptor and to block the binding of fibrinogen to GPIIb/IIIa receptor in the αv /β3 -Biotinylated Vitronectin Binding Assay and GPIIb/IIIa Receptor-Biotinylated Fibrinogen Binding Assay described below.
GPIIb/IIIa Receptor-Biotinylated Fibrinogen Binding Assay
The GPIIb/IIIa receptor was purified from human platelets according to D'Souza et al. (J. Biol. Chem., 1990, 265:3440-3446). The purified GPIIb/IIIa protein was coated on 96 well plates and the competition between test compound and biotinylated fibrinogen for binding to the plate-immobilized GPIIb/IIIa receptor was determined by ELISA as described below. Bound fibrinogen was detected using an avidin-alkaline phosphatase conjugate and paranitrophenol detection at […]. For IC50 determination, test agent was added at various concentrations to plates coated with purified GPIIb/IIIa protein which was followed by the addition of biotinylated fibrinogen. The inhibitory binding constant (Ki) of test agents were calculated under this assay system using standard Michaelis-Menten analysis. The IC50 is the concentration of test substance needed to block 50% of the fibrinogen binding to the GPIIb/IIIa receptor.
The following reagents may be used in the GPIIb/IIIa-fibrinogen binding ELISA:
purified GPIIb/IIIa (148.8 μg/mL);
biotinylated fibrinogen (~1 mg/mL or 3000 nM);
anti-biotin alkaline phosphatase conjugate (Sigma no. A7418);
flat-bottom, high binding, 96-well plates (Costar Cat. no. 3590);
phosphatase substrate (Sigma 104) (40 mg capsules);
bovine serum albumin (BSA) (Sigma no. A3294);
Alkaline Phosphatase buffer--0.1 M glycine-HCl, 1 mM MgCl2.6H2 O, 1 mM ZnCl2, pH 10.4;
Binding buffer--20 mM Tris-HCl, 150 mM NaCl, 1 mM CaCl2.2H2 O, 0.02% NaN3, pH 7.0;
Buffer A--50 mM Tris-HCl, 100 mM NaCl, 2 mM CaCl2.2H2 O, 0.02% NaN3, pH 7.4;
Buffer A+3.5% BSA (Blocking buffer);
Buffer A+0.1% BSA (Dilution buffer);
The following method steps are used in the GPIIb/IIIa-fibrinogen binding ELISA:
Coat plates with GPIIb/IIIa in Binding buffer (125 ng/100 μL/well) overnight at 4° C. (Leave first column uncoated for non-specific binding). Cover and freeze plates at -70° C. until used. Thaw plate 1 hour at room temperature or overnight at 4° C. Discard coating solution and wash once with 200 μL Binding buffer per well. Block plate 2 hours at room temperature on shaker with 200 μl Buffer A+3.5% BSA (Blocking buffer) per well. Discard Blocking buffer and wash once with 200 μL Buffer A+0.1% BSA (Dilution buffer) per well. Pipet 11 μL of test compound (10× the concentration to be tested in Dilution buffer) into duplicate wells. […] Read plate at 405 nm. Blank against non-specific binding (NSB) well. % Inhibition is calculated as 100-(Test Compound Abs/Total Abs)×100.

A further assay has as its target T2, αv /β3 receptor (Homo sapiens, UniProt P05106+P06756).
T2 construct: The αv /β3 receptor was isolated from human placental extracts prepared using octylglucoside; from tissue
The assay is described as follows: αv/β3-Biotinylated Vitronectin Binding Assay. The settings on record: for IC50: inhibition of vitronectin binding to purified αv/β3; for Relative Binding Affinity for αv /β3 Relative to GPIIb/IIIa: ratio of IC50 values (GPIIb/IIIa over αv/β3).
From the text: as §1
αv /β3 -Biotinylated Vitronectin Binding Assay
The αv /β3 receptor was isolated from human placental extracts prepared using octylglucoside. The extract was passed over an anti-αv /β3 monoclonal antibody (LM609) affinity column (prepared using LM609 and Affigel 10). The column was subsequently washed extensively at pH 7 and pH 4.5 followed by elution at pH 3. The resulting sample was concentrated by wheat germ agglutinin chromatography to provide a αv /β3 -containing sample which gave two bands on SDS-PAGE which were confirmed as αv /β3 by western blotting.
The affinity purified αv /β3 protein as described above was diluted at different levels and plated to 96 well plates (about 15 ng of αv /β3 protein per well). ELISA detection of αv /β3 -bound biotinylated vitronectin was performed as described below using fixed concentration of biotinylated vitronectin (approximately 80 nM/well). This αv /β3 receptor preparation contains the αv /β3 with no detectable levels of αv /β5 according to the gel and according to effects of blocking antibodies for the αv /β3 or αv /β5 in the ELISA.
A submaximal concentration of biotinylated vitronectin was selected based on concentration response curves with fixed αv /β3 receptor concentration and variable concentrations of biotinylated vitronectin.
The purified αv /β3 receptor is diluted with coating buffer (20 mM Tris HCl, 150 mM NaCl, 2.0 mM CaCl2, 1.0 mM MgCl2.6H2 O, 1.0 mM MnCl2.4H2 O) and coated (100 μL/well) on Costar (3590) high capacity 96-well plates overnight at 4° C. The coating solution is discarded and the plates washed once with blocking/binding buffer (B/B buffer: 50 mM Tris HCl, 100 mM NaCl, 2.0 mM CaCl2, 1.0 mM MgCl2.6H2 O, 1.0 mM MnCl2.4H2 O). The plate-immobilized αv /β3 receptor is then blocked (200 μl/well) with 3.5% BSA in B/B buffer for 2 hours at room temperature. After washing once with 1.0% BSA in B/B buffer, biotinylated vitronectin (100 μL) and either test compound (inhibitor) (11 μL) or B/B buffer w/1.0% BSA (11 μL) is added to each well. The plates are incubated 2 hours at room temperature. The plates are washed twice with B/B buffer and incubated 1 hour at room temperature with anti-biotin alkaline phosphatase (100 μL/well) in B/B buffer containing 1.0% BSA. The plates are washed twice with B/B buffer and alkaline phosphatase substrate (100 μL) is added. Color is developed at room temperature. Color development is stopped by addition of 2N NaOH (25 μL/well) and absorbance is read at 405 nm.
The inhibitory binding constant (Ki) of test agents 30 may be calculated under this assay system using Michaelis-Menten analysis. The IC50 is the concentration of test substance needed to block 50% of the vitronectin binding to the αv /β3 receptor. The IC50 for the inhibition of binding of vitronectin to the αv /β3 receptor was determined based on time averaged values for the inhibition of vitronectin binding. Thus, the inhibition of vitronectin binding for each concentration of test compound was measured every 30 seconds over a 2 hour period and the average value of inhibition of vitronectin binding over such 2 hour period was used for the determination of the IC50.

In another assay the test system is Platelet Aggregation. The assay is described as follows: Platelet Aggregation Assay (in vitro, ADP-induced, platelet-rich plasma). It is filed as cell-based, mongrel dogs or human. The protocol:
Platelet Aggregation Assay
Venous blood was obtained from anesthetized mongrel dogs or from healthy human donors who were drug-free and aspirin-free for at least two weeks prior to blood collection. Blood was collected into citrated Vacutainer tubes. The blood was centrifuged for 15 minutes at 150× g (850 RPM in a Sorvall RT6000 Tabletop Centrifuge with H-1000 B rotor) at room temperature, and platelet-rich plasma (PRP) was removed. The remaining blood was centrifuged for 15 minutes at 1500× g ([…]) at room temperature, and platelet-poor plasma (PPP) was removed. Samples were assayed on an aggregometer (PAP-4 Platelet Aggregation Profiler), using PPP as the blank (100% transmittance). 200 μL of PRP (5×10^8 platelets/mL) were added to each micro test tube, and transmittance was set to 0%. 20 μl of ADP (10 μM) was added to each tube, and the aggregation profiles were plotted (% transmittance versus time). Test agent (20 μL) was added at different concentrations prior to the addition of the platelet agonist. Results are expressed as % inhibition of agonist-induced platelet aggregation.

For assay [1], the system named is canine thrombosis model (carotid artery). The assay is described as follows: Carotid artery reocclusion in canine thrombosis model with tPA. It is filed as in vivo. The conditions noted are these: dog carotid. The protocol: Compounds useful in the method of the present invention are useful for the prevention of reocclusion as an adjunct to fibrinolytic therapy, as shown in the animal model tests described below. The effect of compound A in combination with tPA on the incidence of carotid artery reocclusion in dogs was assessed using a protocol as described by Mousa et al., Circulation 1994, 89:3-12.

The mark [2] stands for this setting: tPA 0.5 mg locally, 1.5 mg IV bolus, compound A 0.1 mg/kg IV bolus + 0.4 mg/kg IV infusion 3 hr, mean ± SD.

Non-standard residues stand in square brackets, D forms with d. Residues, ends and D or L forms follow the SMILES beside them. 3Amb = NCc1cccc(C(=O)O)c1

T2 sequence (P06756 31-889 limits assumed): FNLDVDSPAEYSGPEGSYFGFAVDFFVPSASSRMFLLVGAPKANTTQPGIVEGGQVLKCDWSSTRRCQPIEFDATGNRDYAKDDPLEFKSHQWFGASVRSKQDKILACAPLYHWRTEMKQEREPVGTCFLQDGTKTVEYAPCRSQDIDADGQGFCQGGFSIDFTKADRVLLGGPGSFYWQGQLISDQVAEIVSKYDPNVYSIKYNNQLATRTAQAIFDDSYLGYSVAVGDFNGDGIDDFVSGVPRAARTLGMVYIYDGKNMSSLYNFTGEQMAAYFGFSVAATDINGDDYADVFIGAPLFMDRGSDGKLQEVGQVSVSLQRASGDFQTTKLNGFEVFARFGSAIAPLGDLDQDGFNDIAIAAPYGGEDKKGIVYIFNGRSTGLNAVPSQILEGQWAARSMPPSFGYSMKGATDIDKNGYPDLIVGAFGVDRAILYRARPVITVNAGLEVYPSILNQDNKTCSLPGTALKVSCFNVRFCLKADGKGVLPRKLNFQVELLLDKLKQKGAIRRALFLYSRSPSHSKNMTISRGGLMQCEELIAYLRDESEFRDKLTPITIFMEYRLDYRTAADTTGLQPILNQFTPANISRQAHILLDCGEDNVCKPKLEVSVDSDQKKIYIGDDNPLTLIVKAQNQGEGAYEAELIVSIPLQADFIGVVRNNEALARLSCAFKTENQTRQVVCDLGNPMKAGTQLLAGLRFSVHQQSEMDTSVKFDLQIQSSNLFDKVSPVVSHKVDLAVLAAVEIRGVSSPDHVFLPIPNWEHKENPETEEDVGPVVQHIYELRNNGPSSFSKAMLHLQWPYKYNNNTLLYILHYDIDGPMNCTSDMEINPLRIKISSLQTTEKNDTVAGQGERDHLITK
T2 sequence (P06756 891-1048 partner limits assumed): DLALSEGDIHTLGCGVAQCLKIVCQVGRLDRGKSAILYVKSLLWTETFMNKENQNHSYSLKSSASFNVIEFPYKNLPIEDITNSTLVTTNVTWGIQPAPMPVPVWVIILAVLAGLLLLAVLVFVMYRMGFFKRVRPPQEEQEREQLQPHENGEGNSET
T2 sequence (P05106 27-788): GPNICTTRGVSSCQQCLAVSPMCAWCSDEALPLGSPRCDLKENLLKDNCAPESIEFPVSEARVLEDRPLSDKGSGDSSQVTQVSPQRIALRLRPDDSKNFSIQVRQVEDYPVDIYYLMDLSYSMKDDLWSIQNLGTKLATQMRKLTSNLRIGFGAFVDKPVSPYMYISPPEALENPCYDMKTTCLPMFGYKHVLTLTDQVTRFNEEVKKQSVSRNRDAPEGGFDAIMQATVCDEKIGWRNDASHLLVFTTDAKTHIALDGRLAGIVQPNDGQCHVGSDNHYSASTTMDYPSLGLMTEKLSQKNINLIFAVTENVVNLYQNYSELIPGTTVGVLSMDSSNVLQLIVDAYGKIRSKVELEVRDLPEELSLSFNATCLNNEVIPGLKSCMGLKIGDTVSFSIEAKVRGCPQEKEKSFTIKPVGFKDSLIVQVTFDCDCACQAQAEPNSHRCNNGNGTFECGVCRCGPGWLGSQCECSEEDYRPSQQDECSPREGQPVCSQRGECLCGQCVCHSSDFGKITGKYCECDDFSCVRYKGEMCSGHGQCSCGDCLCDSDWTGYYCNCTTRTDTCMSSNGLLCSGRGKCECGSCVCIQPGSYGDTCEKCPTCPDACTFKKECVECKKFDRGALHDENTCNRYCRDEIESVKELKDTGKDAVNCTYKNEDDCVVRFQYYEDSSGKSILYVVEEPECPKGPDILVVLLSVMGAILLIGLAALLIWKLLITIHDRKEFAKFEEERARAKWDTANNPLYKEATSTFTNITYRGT
T1 sequence (P08514 32-887 limits assumed): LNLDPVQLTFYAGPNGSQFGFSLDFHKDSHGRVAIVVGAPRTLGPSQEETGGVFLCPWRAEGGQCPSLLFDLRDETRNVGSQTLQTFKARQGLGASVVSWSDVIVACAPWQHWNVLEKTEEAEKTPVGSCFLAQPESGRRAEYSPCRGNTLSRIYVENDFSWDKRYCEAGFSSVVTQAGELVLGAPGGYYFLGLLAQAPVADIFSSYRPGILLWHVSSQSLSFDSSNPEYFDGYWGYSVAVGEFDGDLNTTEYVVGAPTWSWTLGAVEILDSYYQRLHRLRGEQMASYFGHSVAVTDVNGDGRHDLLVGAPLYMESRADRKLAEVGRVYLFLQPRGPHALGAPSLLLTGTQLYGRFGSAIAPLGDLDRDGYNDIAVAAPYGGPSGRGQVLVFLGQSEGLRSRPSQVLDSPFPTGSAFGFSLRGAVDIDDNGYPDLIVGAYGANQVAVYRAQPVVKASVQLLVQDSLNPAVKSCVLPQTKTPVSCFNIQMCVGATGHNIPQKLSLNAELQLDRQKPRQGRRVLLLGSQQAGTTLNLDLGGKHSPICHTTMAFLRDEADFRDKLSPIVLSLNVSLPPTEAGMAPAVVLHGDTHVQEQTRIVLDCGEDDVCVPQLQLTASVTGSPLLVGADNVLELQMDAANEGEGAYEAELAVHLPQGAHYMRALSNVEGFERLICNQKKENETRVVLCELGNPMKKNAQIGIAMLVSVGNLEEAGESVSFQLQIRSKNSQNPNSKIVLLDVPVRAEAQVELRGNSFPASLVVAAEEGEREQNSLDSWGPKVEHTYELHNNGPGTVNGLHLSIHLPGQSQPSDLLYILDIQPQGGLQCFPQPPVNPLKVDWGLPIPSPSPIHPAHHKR
T1 sequence (P08514 891-1039 partner limits assumed): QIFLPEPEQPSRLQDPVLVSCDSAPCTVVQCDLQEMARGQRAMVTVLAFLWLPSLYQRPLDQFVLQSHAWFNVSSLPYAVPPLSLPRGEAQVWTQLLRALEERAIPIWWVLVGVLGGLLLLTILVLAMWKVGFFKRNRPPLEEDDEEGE
T1 sequence (P05106 27-788): as the sequence (P05106 27-788) above

Take `N=C(N)NCCC[C@@H]1NC(=O)[C@H](CCCCN)NC(=O)c2cccc(c2)CNC(=O)[C@H](CC(=O)O)NC(=O)CNC1=O` [Compound D, cyclo-(Lys-Arg-Gly-Asp-Mamb)] (cyclo(RGD[3Amb]K)): the IC50 (commonly the concentration needed to halve the response being measured) is 0.359 µM on GPIIb/IIIa receptor, 0.0019 µM on αv /β3 receptor and 23 µM in the assay with Platelet Aggregation. The “Relative Binding Affinity for αv /β3 Relative to GPIIb/IIIa” value at αv /β3 receptor was 189.

As to “tPA: tissue plasminogen activator, thrombolytic agent”, the “Blood Flow, Basal” value in assay [1] (basal, tPA with or without compound A, mean ± SD) stood at 30 ± 2.5 cm/s. The “Blood Flow, End” value in assay [1] (end, tPA with or without compound A) was found to be 0 cm/s. Further, the “Blood Flow, Reperfusion” value in assay [1] (reperfusion, tPA with or without compound A, mean ± SD) came to 24.2 ± 8 cm/s. For the same compound, in assay [1] (setting [2]), the “Thrombus Weight (wet, mg)” value stood at 36.2 ± 19.4 mg; the “Time to Occlusion” value is 80 ± 25 min; the “Time to Reocclusion” value is listed as 23 ± 10 min; the “Time to Reperfusion” value turned out to be 15 ± 10 min.

Turning to `CC(C)C[C@@H]1NC(=O)c2cccc(c2)CNC(=O)[C@H](CC(=O)O)NC(=O)CNC(=O)[C@H](CCCNC(=N)N)NC1=O` [Compound E, cyclo-(Leu-Arg-Gly-Asp-Mamb)] (cyclo(RGD[3Amb]L)), the IC50 on GPIIb/IIIa receptor worked out at 0.43 µM; on αv /β3 receptor, 0.0014 µM; in the assay on Platelet Aggregation, 41 µM. Besides, the “Relative Binding Affinity for αv /β3 Relative to GPIIb/IIIa” value at αv /β3 receptor was 307.

(Values after patent US6056958A, “Method of treatment of arterial and venous thromboembolic disorders” (Dupont Pharmaceuticals, priority 1997, dated 2000).)
